{
  "source": "patent US8507219B2",
  "about": "“Method of treating inflammation with statins” (MUSC Foundation for Research Development, priority 1997, dated 2013)",
  "key": {"[1]": {"test_system": "TNF-α production in rat resident macrophages", "test": "LPS-/IFN-γ-induced TNF-α production (ELISA) in rat macrophages", "type": "cell-based", "experimental": "Resident macrophages cultured in serum-free RPMI 1640 medium received 20 mM NAC or 100 μM PDTC 2 h before the addition of stimuli. When stimuli were used separately their concentrations were: LPS, 1.0 μg/ml; IFN-γ, 200 U/ml, and when they were used together, their concentrations were: LPS, 0.2 μg/ml; IFN-γ, 50 U/ml. Supernatants were collected 24 h after the addition of stimuli to measure TNF-α concentration using ELISA as described."}, "[2]": {"test_system": "NOS activity in rat resident macrophages", "test": "NOS activity (L-citrulline from L-arginine) in homogenates of treated rat resident macrophages", "type": "cell-based", "settings": "LPS 1.0 μg/ml, 24 h", "experimental": "NOS activity was measured directly by production of L-[2,3,4,5-^3H]citrulline from L-[2,3,4,5-^3H] arginine (Feinstein et al., 1994a). […] Assays were carried out for 30 to 40 min and the production of L-[2,3,4,5-^3H] citrulline was linear. The reactions were stopped by addition of 800 μl of ice-cold 20 mM HEPES (pH 5.5) followed by addition of 2 ml of Dowex-50W equilibrated in the same buffer. The samples were then centrifuged and the concentration of L-[^3H]citrulline was determined in the supernatant by liquid scintillation counting."}, "[3]": {"test_system": "ceramide production in rat primary astrocytes", "test": "Degradation of sphingomyelin to ceramide (DAG kinase assay, HPTLC) in rat primary astrocytes", "type": "cell-based", "settings": "10 mM NAC or 100 μM PDTC 1 h before TNF-α or IL-1β (50 ng/ml), diamide 0.5 mM or aminotriazole 5 mM", "experimental": "Lipid extraction Approximately 1.0×10^6 cells were exposed to different cytokines in the presence or absence of antioxidants for different periods and lipids were extracted according to the methods described by Welsh (1996).\nQuantification of sphingomyelin by HPTLC and densitometry Sphingomyelin was separated from total lipid extracts by HPTLC (LPK-plates from Whatman Labsales, USA) as described (Ganser et al., 1988) for phospholipids with the modification, that the plate was overrun for 30 min during its development and was dried overnight in vacuum desicator. Sphingomyelin was quantitated by densitometric scanning using Imaging Densitometer (Model GS-670; Bio-Rad, USA) and software provided with the instrument by the manufacturer.\nQuantification of ceramide levels by diacylglycerol kinase assay Ceramide content was quantified essentially according to Priess et al. using diacylglycerol (DAG) kinase and [γ-^32P]ATP (Priess et al., 1986). Briefly, dried lipids were solubilized in 20 μl of an octyl β-D-glucoside/cardiolipin solution (7.5% octyl β-D-glucoside, 5 mM cardiolipin in 1 mM DTPA) by sonication in a sonicator bath. […] The labeled ceramide 1-phosphate was resolved with a solvent system consisting of methyl acetate: n-propanol:chloroform:methanol:0.25% KCl in water:acetic-acid (100:100:100:40:36:2). A standard sample of ceramide was phosphorylated under identical conditions and developed in parallel. […] Quantification of ceramide 1-phosphate was carried out by autoradiography and densitometric scanning using Imaging Densitometer (Model GS-670; Bio-Rad, USA). Values are expressed either as arbitrary units (absorbance) or as percent change.\nLipid Extraction Approximately 1.0×10^6 cells were exposed to different cytokines in the presence or absence of antioxidants for different periods, and lipids were extracted according to the methods described by Welsh (1996).\nQuantification of Sphingomyelin by High Performance TLC and Densitometry Sphingomyelin was separated from total lipid extracts by high performance TLC (LHPK plates from Whatman) as described by Ganser et al. (1988) for phospholipids with the following modification: the plate was overrun for 30 min during its development and was dried overnight in vacuum desiccator. Sphingomyelin was quantitated by densitometric scanning using Imaging Densitometer (model GS-670; Bio-Rad), and software was provided with the instrument by the manufacturer.\nQuantification of Ceramide Levels by Diacylglycerol Kinase Assay Ceramide content was quantified essentially according to Priess et al. (1986) using diacylglycerol (DAG) kinase and [γ-^32P]ATP. Briefly, dried lipids were solubilized in 20 μl of an octyl β-D-glucoside/cardiolipin solution (7.5% octyl β-D-glucoside, 5 mM cardiolipin in 1 mM DTPA) by sonication in a sonicator bath. […] The labeled ceramide-1-phosphate was resolved with a solvent system consisting of methyl acetate:n-propyl alcohol:chloroform:methanol, 0.25% KCl in water:acetic acid (100:100:100:40:36:2). A standard sample of ceramide was phosphorylated under identical conditions and developed in parallel. […] Quantification of ceramide-1-phosphate was carried out by autoradiography and densitometric scanning using Imaging Densitometer (model GS-670; Bio-Rad). Values are expressed either as arbitrary units (absorbance) or as percent change."}, "[4]": {"test_system": "cultured skin fibroblasts of X-ALD", "test": "VLCFA ratios (C26:0/C22:0, C24:0/C22:0) in X-ALD skin fibroblasts", "type": "cell-based, human", "settings": "about 15 days of treatment"}, "[5]": {"test_system": "IL-1β production in rat primary microglia", "test": "LPS-induced IL-1β production (ELISA) in rat primary microglia", "type": "cell-based", "experimental": "(§1) Determination of TNF-α and IL-1β in culture supernatants Cells were stimulated with LPS in serum-free media for 24 h in the presence or absence of forskolin or rolipram, and concentrations of TNF-α and IL-1β were measured in culture supernatants by using high-sensitivity enzyme-linked immunosorbent assay (R&D Systems, USA) according to the manufacturer's instructions."}, "[6]": {"test_system": "control human skin fibroblasts", "test": "β-oxidation of lignoceric acid in control human skin fibroblasts", "type": "cell-based", "settings": "72 h"}, "[7]": {"test_system": "TNF-α production in rat primary microglia", "test": "LPS-induced TNF-α production (ELISA) in rat primary microglia", "type": "cell-based", "experimental": "as §1"}, "[8]": {"test_system": "iNOS", "test": "Expression of iNOS protein (immunoblot) and mRNA (Northern) in rat primary astrocytes", "type": "cell-based", "settings": "10 μM forskolin or 0.2 μM H-89 15 min before cytokines / LPS", "experimental": "Immunoblot analysis for iNOS Following 24 h incubation in the presence or absence of stimuli by different cytokines or LPS, macrophages were scraped off, washed with Hank's buffer, and homogenized in 50 mM Tris-HCl (pH 7.4) containing protease inhibitors ([…] PMSF, 5 μg/ml aprotinin, 5 μg/ml pepstatin A, and 5 μg/ml leupeptin). After electrophoresis the proteins were transferred onto a nitrocellulose membrane, and the iNOS band was visualized by immunoblotting with antibodies against mouse macrophage iNOS and [^125I]-labeled protein A (Singh et al., 1988).\nRNA isolation, Northern blot analysis, and reverse-transcriptase coupled polymerase chain reaction (RT-PCR) Stimulated peritoneal macrophages were taken out from culture dishes directly by adding Ultraspec-II RNA reagent (Biotecx Laboratories Inc.) and total RNA was isolated according to the manufacturer's protocol. For northern blot analyses, 20 μg of total RNA was electrophoresed on 1.2% denaturing formaldehyde-agarose gels, electrotransferred to Hybond-Nylon Membrane (Amersham) and hybridized at 68° C. with ^32P-labeled cDNA probe using Express Hyb hybridization solution (Clontech) as described by the manufacturer. […]; After hybridization filters were washed two to three times in solution I (2×SSC, 0.05% SDS) for 1 h at room temperature followed by solution II (0.1×SSC, 0.1% SDS) at 50° C. for another hour. The membranes were then dried and exposed to X-ray film (Kodak). The same filters were stripped and rehybridized with probes for GAPDH. The relative mRNA content for iNOS was measured after scanning the bands with a Biorad (Model GS-670) imaging densitometer.\nImmunoblot analysis for iNOS Following 24 h incubation in the presence or absence of different stimuli, cells were scraped off, washed with Hank's buffer, and homogenized in 50 mM Tris-HCl (pH 7.4) containing protease inhibitors. After electrophoresis the proteins were transferred onto a nitrocellulose membrane, and the iNOS band was visualized by immunoblotting with antibodies against mouse macrophage iNOS and [^125I]-labeled protein A.\nRNA isolation and Northern blot analysis Cells were taken out from culture dishes directly by adding Ultraspec-II RNA reagent (Biotecx Laboratories Inc.) and total RNA was isolated according to the manufacturer's protocol. For Northern blot analyses, 20 μg of total RNA was electrophoresed on 1.2% denaturing formaldehyde-agarose gels, electrotransferred to Hybond-Nylon Membrane (Amersham) and hybridized at 68° C. with ^32P-labeled cDNA probe using Express Hyb hybridization solution (Clontech) as described by the manufacturer. […]; After hybridization filters were washed two or three times in solution I (2×SSC, 0.05% SDS) for one hour at room temperature followed by solution II (0.1×SSC, 0.1% SDS) at 50° C. for another hour. The membranes were then dried and exposed with X-ray films (Kodak). The same filters were stripped and rehybridized with probes for GAPDH. The relative mRNA content for iNOS was measured after scanning the bands with a Biorad (Model GS-670) imaging densitometer.\nImmunoblot analysis for iNOS After a 24 h incubation in the presence or absence of different stimuli, cells were scraped off, washed with Hank's buffer, and homogenized in 50 mM Tris-HCl (pH 7.4) containing protease inhibitors (1 mM PMSF, 5 μg/ml aprotinin, 5 μg/ml pepstatin A, and 5 μg/ml leupeptin). After electrophoresis the proteins were transferred onto a nitrocellulose membrane, and the iNOS band was visualized by immunoblotting with antibodies against mouse macrophage iNOS and [^125I]-labeled protein A.\nRNA isolation and Northern blot analysis Cells were taken out from culture dishes directly by adding Ultraspec-II RNA reagent (Biotecx Laboratories Inc., Houston, Tex.), and total RNA was isolated according to the manufacturer's protocol. […]"}},
  "note": "“Also recorded” adds a separate entry of the source.",
  "data": [
    {"compound": "S=C(S)N1CCCC1", "note": "[PDTC, pyrrolidine dithiocarbamate]", "values": [
      {"measurement": "Inhibition (%)", "setting": "[1]; LPS 0.2 μg/ml + IFN-γ 50 U/ml, 20 mM NAC or 100 μM PDTC 2 h before", "value": 96, "unit": "%"},
      {"measurement": "TNF-α", "setting": "[1]; LPS 0.2 μg/ml + IFN-γ 50 U/ml, 20 mM NAC or 100 μM PDTC 2 h before, 24 h", "value": "1.4 ± 0.3", "unit": "ng/24 h/mg protein"},
      {"measurement": "Inhibition (%)", "setting": "[1]; LPS 1.0 μg/ml, 20 mM NAC or 100 μM PDTC 2 h before", "value": 95, "unit": "%"},
      {"measurement": "TNF-α", "setting": "[1]; LPS 1.0 μg/ml, 20 mM NAC or 100 μM PDTC 2 h before, 24 h", "value": "0.9 ± 0.1", "unit": "ng/24 h/mg protein"},
      {"measurement": "TNF-α", "setting": "[1]; antioxidant alone (20 mM NAC or 100 μM PDTC), no stimulus", "value": "0.7 ± 0.2", "unit": "ng/24 h/mg protein"},
      {"measurement": "LPS-induced NOS activity, L-citrulline formation", "setting": "[2]", "value": "inhibited LPS-induced NOS activity"},
      {"measurement": "degradation of sphingomyelin to ceramide / ceramide production", "setting": "[3]", "value": "potentially blocked the decrease in sphingomyelin as well as the increase in ceramide; also recorded: also inhibited cytokine-mediated degradation of SM to ceramide"}
    ]},
    {"compound": "O=S(=O)(NCCNC/C=C/c1ccc(Br)cc1)c1cccc2cnccc12", "note": "[H-89]", "values": [
      {"measurement": "ratios of C26:0/C22:0 and C24:0/C22:0 / level of VLCFA", "setting": "[4]", "value": "blocked the observed effect of forskolin on the level of VLCFA"},
      {"measurement": "LPS-induced production of IL-1β", "setting": "[5]", "value": "stimulated the production of these proinflammatory cytokines in rat primary microglia"},
      {"measurement": "Lignoceric acid β-oxidation", "setting": "[6]; forskolin 4 μM, 1,9 dideoxy forskolin 4 μM, 8-Br-cAMP 50 μM, H-89 1 μM, myristoylated PKI 0.2 μM, Control 565.2 ± 48.3", "value": "405.6 ± 44.1", "unit": "pmol/h/mg protein"},
      {"measurement": "LPS-induced production of TNF-α", "setting": "[7]", "value": "stimulated the production of these proinflammatory cytokines in rat primary microglia"},
      {"measurement": "cytokine-induced expression of iNOS", "setting": "[8]", "value": "stimulated the cytokine-induced expression of iNOS"}
    ]},
    {"compound": "CC[C@H](C)C(=O)O[C@H]1CCC=C2C=C[C@H](C)[C@H](CC[C@@H]3C[C@@H](O)CC(=O)O3)[C@H]21", "note": "[Mevastatin]", "values": [
      {"measurement": "Lignoceric acid β-oxidation", "setting": "[6]; Lovastatin 5 μM, Mevastatin 5 μM, NaPA 5 mM, Control 570.2 ± 52.3", "value": "889.6 ± 78.4", "unit": "pmol/h/mg protein"}
    ]}
  ]
}
